Experimental data reported in US10588316B2 (priority 2015, dated 2020).
Converted amounts (≈) assume the structure as drawn. Like-named read-outs stand apart in the source and are kept apart here.

Assays:
rust = test system: rust; parameters: species or system wheat; settings: in vivo
leaf blight = test system: leaf blight; parameters: species or system wheat; settings: in vivo
Fusarium asiaticum = experiment: microbe, parasite or virus in culture; format: cell-based; settings: Fusarium asiaticum, read-out: Median Effective Concentration (EC50) for Growth Inhibition
[1] = parameters: species or system wheat; settings: in vivo
wheat scab [2] = format: in vivo; settings: Carbendazim 50 g a.i.
Fusarium graminearum = experiment: microbe, parasite or virus in culture; format: cell-based; settings: Fusarium graminearum, read-out: Median Effective Concentration (EC50) for Growth Inhibition
wheat scab [3] = format: in vivo; settings: 80 g of 50% of Carbendazim Wettable Powder
wheat scab [4] = format: in vivo; settings: Carbendazim 40 g a.i. per mu
wheat scab [5] = format: in vivo; settings: Carbendazim 40 g a.i. per mu, control agent

COC(=O)Nc1nc2ccccc2[nH]1 [Carbendazim, carbendazim]
Disease Index Prevention Effect % Rust (rust): 61.20%
Disease Index Prevention Effect % Leaf Blight (leaf blight): 48.50%
EC50 (Fusarium asiaticum): 0.45 µg/mL (≈ 2.35 µM)
Thousand Kernel Weight [1]: 41.60 g
Disease Index Prevention Effect % Head Blight (wheat scab [2]): 49.04%
EC50 (Fusarium graminearum): 0.45 µg/mL (≈ 2.35 µM)
Disease Index Prevention Effect % Head Blight (wheat scab [3]): 64.6%
Disease Index Prevention Effect % Head Blight (wheat scab [4]): 38.60%
Disease Index Prevention Effect % Actual Prevention Effect (wheat scab [5]): 67.5%
